Measurements: PubChem BioAssay AID292 (DTP/NCI, 2004)
Values joined by “and” are separate entries in the source; they are usually repeats but may differ in a detail not shown here. Equal entries are not always repeated. Inconclusive results and toxic doses are left out. Rule for the calls: active = survival T/C of 150% or more; inactive = T/C below 125% in these data.

Tested on: B6C3F1 mice, ip Sarcoma M5076, median survival T/C
Assay: NCI In Vivo Anticancer Drug Screen. Data for tumor model Sarcoma M5076 (intraperitoneal) in B6C3F1 mice
Details: endpoint: median survival time, higher = longer survival
How it was run: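 Transplantable tumour in mice; compound-treated vs vehicle-treated groups. Read-out: survival. Value = treated/control ratio.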

[1] = dose: 25.0 mg/kg/injection, schedule: Q04DX004 (ip), vehicle: Klucel (hydroxypropylcellulose) (HPC)
[2] = dose: 50.0 mg/kg/injection, schedule: Q04DX004 (ip), vehicle: Klucel (hydroxypropylcellulose) (HPC)
[3] = dose: 100.0 mg/kg/injection, schedule: Q04DX004 (ip), vehicle: Klucel (hydroxypropylcellulose) (HPC)
[4] = dose: 200.0 mg/kg/injection, schedule: Q04DX004 (ip), vehicle: Klucel (hydroxypropylcellulose) (HPC)
[5] = dose: 400.0 mg/kg/injection, schedule: Q04DX004 (ip), vehicle: Klucel (hydroxypropylcellulose) (HPC)
[6] = dose: 50.0 mg/kg/injection, schedule: Q04DX004 (ip), vehicle: Klucel + Tween-80
[7] = dose: 100.0 mg/kg/injection, schedule: Q04DX004 (ip), vehicle: Klucel + Tween-80
[8] = dose: 200.0 mg/kg/injection, schedule: Q04DX004 (ip), vehicle: Klucel + Tween-80
[9] = dose: 50.0 mg/kg/injection, schedule: Q04DX004 (ip), vehicle: saline with Tween-80
[10] = dose: 100.0 mg/kg/injection, schedule: Q04DX004 (ip), vehicle: saline with Tween-80
[11] = dose: 200.0 mg/kg/injection, schedule: Q04DX004 (ip), vehicle: saline with Tween-80
[12] = dose: 400.0 mg/kg/injection, schedule: Q04DX004 (ip), vehicle: saline with Tween-80
[13] = dose: 37.5 mg/kg/injection, schedule: Q04DX004 (ip), vehicle: saline with Tween-80

Measured: T/C

Cn1[nH]c2[nH]c(=S)sc(=S)c2c1=O
inactive: [1] 100 % of control | [2] 94 % of control | [3] 95 % of control | [4] 94 % of control | [5] 95 % of control

O=C(NC(Cc1ccc(I)cc1)C(=O)O)c1ccc(Br)cc1 (stereo not given)
inactive: dose: 25.0 mg/kg/injection, schedule: Q04DX004 (ip), vehicle: sodium bicarbonate 102 % of control | dose: 50.0 mg/kg/injection, schedule: Q04DX004 (ip), vehicle: sodium bicarbonate 105 % of control | dose: 100.0 mg/kg/injection, schedule: Q04DX004 (ip), vehicle: sodium bicarbonate 97 % of control | dose: 200.0 mg/kg/injection, schedule: Q04DX004 (ip), vehicle: sodium bicarbonate 104 % of control | dose: 400.0 mg/kg/injection, schedule: Q04DX004 (ip), vehicle: sodium bicarbonate 90 % of control

N#CC1C(=O)NC(=O)C(C#N)C1CCc1ccccc1 (stereo not given)
inactive: [6] 105 % of control | [7] 97 % of control | [8] 105 % of control

CCOC(=O)CC1(C)SCCN1C(=O)OCC (stereo not given)
inactive: [9] 114 % of control | [10] 114 % of control | [11] 122 % of control | [12] 103 % of control | dose: 800.0 mg/kg/injection, schedule: Q04DX004 (ip), vehicle: saline with Tween-80 98 % of control

CCCCCCCCCCCC1C(C#N)C(=O)NC(=O)C1C#N (stereo not given)
inactive: [6] 104 % of control | [7] 93 % of control | [8] 96 % of control | dose: 400.0 mg/kg/injection, schedule: Q04DX004 (ip), vehicle: Klucel + Tween-80 93 % of control | dose: 800.0 mg/kg/injection, schedule: Q04DX004 (ip), vehicle: Klucel + Tween-80 93 % of control

O=CC(CO)CC(C=O)n1cnc2c(=O)[nH]cnc21 (stereo not given)
inactive: dose: 37.0 mg/kg/injection, schedule: Q04DX004 (ip), vehicle: saline 104 % of control | dose: 75.0 mg/kg/injection, schedule: Q04DX004 (ip), vehicle: saline 105 % of control | dose: 300.0 mg/kg/injection, schedule: Q04DX004 (ip), vehicle: saline 124 % of control

O=C(CN1CCC(O)(c2ccc(F)cc2)CC1)N1CCN(C/C=C/c2ccccc2)CC1
inactive: [13] 103 % of control | dose: 75.0 mg/kg/injection, schedule: Q04DX004 (ip), vehicle: saline with Tween-80 100 % of control | dose: 150.0 mg/kg/injection, schedule: Q04DX004 (ip), vehicle: saline with Tween-80 102 % of control | dose: 300.0 mg/kg/injection, schedule: Q04DX004 (ip), vehicle: saline with Tween-80 94 % of control | dose: 600.0 mg/kg/injection, schedule: Q04DX004 (ip), vehicle: saline with Tween-80 95 % of control

O=C1N[C@@H]([C@H]2CC[C@H](Cl)CN2)C(=O)N[C@H]1[C@H]1CC[C@H](Cl)CN1
active: dose: 2.0 mg/kg/injection, schedule: Q04DX005 (ip), vehicle: saline 185 % of control | dose: 4.0 mg/kg/injection, schedule: Q04DX005 (ip), vehicle: saline 319 % of control | dose: 8.0 mg/kg/injection, schedule: Q04DX005 (ip), vehicle: saline 319 % of control
inactive: dose: 0.5 mg/kg/injection, schedule: Q04DX005 (ip), vehicle: saline 115 % of control

O=c1/c(=C\C=C\c2ccccc2)sc2n1CCN=2
inactive: [9] 95 % of control | [10] 99 % of control | [11] 91 % of control | [12] 99 % of control

COc1ccc(OC)c(Cc2cnc3nc(N)nc(N)c3c2C)c1
inactive: dose: 25.0 mg/kg/injection, schedule: Q04DX004 (ip), vehicle: water 95 % of control | dose: 50.0 mg/kg/injection, schedule: Q04DX004 (ip), vehicle: water 115 % of control

Cc1c(-c2ccc(C3CCCCC3)cc2)nc2ccc(F)cc2c1C(=O)O
inactive: [2] 114 % of control and 121 % of control | [3] 118 % of control and 122 % of control
active: dose: 800.0 mg/kg/injection, schedule: Q04DX004 (ip), vehicle: Klucel (hydroxypropylcellulose) (HPC) 152 % of control

O=C1C=C(N2CC2)C(=O)C(N2CC2)=C1N1CC1
inactive: dose: 1.56 micrograms/kg/injection, schedule: Q04DX004 (ip), vehicle: saline 99 % of control | dose: 3.12 micrograms/kg/injection, schedule: Q04DX004 (ip), vehicle: saline 103 % of control | dose: 6.25 micrograms/kg/injection, schedule: Q04DX004 (ip), vehicle: saline 111 % of control | dose: 12.5 micrograms/kg/injection, schedule: Q04DX004 (ip), vehicle: saline 111 % of control | dose: 25.0 micrograms/kg/injection, schedule: Q04DX004 (ip), vehicle: saline 114 % of control

O=C(NNC(=O)c1cccc(C(=O)NNC(=O)c2ccc(Cl)c(Cl)c2)n1)c1ccc(Cl)c(Cl)c1
inactive: [1] 102 % of control | [2] 96 % of control

CCN(CC)CCOC(=O)c1c(C)oc2cc3c(C(=O)OCCN(CC)CC)c(C)oc3cc12
inactive: [1] 105 % of control | [2] 99 % of control | [3] 109 % of control | [4] 104 % of control | [5] 106 % of control

C=CC1(C)CC(=O)C2(O)C(C)(O1)C(OC(C)=O)C(O)C1C(C)(C)CCC(O)C12C (stereo not given)
inactive: dose: 2.0 mg/kg/injection, schedule: Q04DX004 (ip), vehicle: DMSO 98 % of control | dose: 4.0 mg/kg/injection, schedule: Q04DX004 (ip), vehicle: DMSO 104 % of control | dose: 8.0 mg/kg/injection, schedule: Q04DX004 (ip), vehicle: DMSO 98 % of control | dose: 16.0 mg/kg/injection, schedule: Q04DX004 (ip), vehicle: DMSO 96 % of control and 101 % of control | dose: 32.0 mg/kg/injection, schedule: Q04DX004 (ip), vehicle: DMSO 95 % of control and 107 % of control

COc1cc(N2C(=O)C(=O)C(C(C)=O)C2=O)c(OC)cc1Cl (stereo not given)
inactive: [2] 102 % of control | [3] 102 % of control | [4] 101 % of control | [5] 102 % of control

CN1C(=O)C2CC(O)C(SC3CC4C(=O)N(C)C(=O)C4CC3O)CC2C1=O (stereo not given)
inactive: dose: 37.5 mg/kg/injection, schedule: Q04DX004 (ip), vehicle: water 101 % of control | dose: 75.0 mg/kg/injection, schedule: Q04DX004 (ip), vehicle: water 105 % of control | dose: 150.0 mg/kg/injection, schedule: Q04DX004 (ip), vehicle: water 102 % of control | dose: 300.0 mg/kg/injection, schedule: Q04DX004 (ip), vehicle: water 97 % of control | dose: 600.0 mg/kg/injection, schedule: Q04DX004 (ip), vehicle: water 107 % of control

O=C(Nc1cc(Cl)ccc1C(=O)O)c1cccc(C[n+]2ccccc2)c1
inactive: [9] 100 % of control | [10] 104 % of control | [11] 95 % of control | [12] 88 % of control

O=C(CSc1nnc(-c2ccc(Cl)cc2)s1)Nc1nccs1
inactive: dose: 5.0 mg/kg/injection, schedule: Q04DX004 (ip), vehicle: saline with Tween-80 101 % of control | dose: 10.0 mg/kg/injection, schedule: Q04DX004 (ip), vehicle: saline with Tween-80 95 % of control | dose: 20.0 mg/kg/injection, schedule: Q04DX004 (ip), vehicle: saline with Tween-80 93 % of control | [13] 90 % of control | dose: 40.0 mg/kg/injection, schedule: Q04DX004 (ip), vehicle: saline with Tween-80 88 % of control | dose: 80.0 mg/kg/injection, schedule: Q04DX004 (ip), vehicle: saline with Tween-80 88 % of control

CC(C)[C@](O)(C(=O)OCC1=CC[N+]2([O-])CC[C@@H](O)[C@@H]12)[C@H](C)O (stereo not given in full)
active: dose: 225.0 mg/kg/injection, schedule: Q04DX004 (ip), vehicle: water 150 % of control | dose: 300.0 mg/kg/injection, schedule: Q04DX005 (ip), vehicle: saline 153 % of control | dose: 450.0 mg/kg/injection, schedule: Q04DX004 (ip), vehicle: water 199 % of control | dose: 600.0 mg/kg/injection, schedule: Q04DX005 (ip), vehicle: saline 230 % of control | dose: 900.0 mg/kg/injection, schedule: Q04DX004 (ip), vehicle: water 208 % of control | dose: 1200.0 mg/kg/injection, schedule: Q04DX005 (ip), vehicle: saline 230 % of control | dose: 1800.0 mg/kg/injection, schedule: Q04DX004 (ip), vehicle: water 291 % of control
inactive: dose: 75.0 mg/kg/injection, schedule: Q04DX005 (ip), vehicle: saline 111 % of control | dose: 112.5 mg/kg/injection, schedule: Q04DX004 (ip), vehicle: water 122 % of control | dose: 150.0 mg/kg/injection, schedule: Q04DX005 (ip), vehicle: saline 108 % of control
